In patent publication US11904054B2, “Compositions and methods for delivering pharmaceutical agents” (Arizona Board of Regents on Behalf of the University of …, priority 2018, dated 2024):

Key:
[1] = Residual water content by Karl Fischer titration; type: physicochemical; conditions: Karl Fisher Titration, n = 3, Mean ± SD
Excerpt: (§1) Using conditions similar to previously reported (Li, X., et al., J Aerosol Med Pulm Drug Deliv, 2014. 27(2): p. 81-93; Li, X., et al., European Journal of Pharmaceutical Sciences, 2014. 52: p. 191-205; Meenach, S. A., et al., AAPS PharmSciTech, 2014. 15(6): p. 1574-87; Li, X., et al., Pharm Sci, 2014. 103(9): p. 2937-49; Meenach, S. A., et al., European Journal of Pharmaceutical Sciences, 2013. 49(4): p. 699-797; Muralidharan, P., et al., The Royal Society of Chemistry(RSC): Molecular Systems Design & Engineering, 2016: p. 1-18), the residual water content of all SD and Co-SD powders were quantified analytically by Karl Fischer titration (KFT) coulometrically using a TitroLine 7500 trace titrator (SI Analytics, Germany).
Approximately 2-10 mg of powder was added to the titration cell containing Hydranal® Coulomat AD reagent. The residual water content was then calculated.

[2] = Particle sizing and size distribution by image analysis of SEM micrographs; type: physicochemical
Excerpt: as §1, with “visual imaging and analysis” for “the residual water content”, “particle size, morphology,” for “all SD”, “surface morphology” for “Co-SD powders”, “achieved” for “quantified analytically”, “scanning electron microscopy (SEM)” for “Karl Fischer titration (KFT) coulometrically”, “FEI Inspect S microscope (FBI, Brno, Czech republic). […]” for “TitroLine 7500 trace titrator (SI Analytics, Germany).”
The mean size, standard deviation, and size range were determined using SigmaScan™ Pro 5.0.0 (Systat, Inc., San Jose, Calif.) based on their scanning electron micrographs using a similar procedure that we have previously reported (Muralidharan et al., supra; Meenach, S. A., et al., AAPS PharmSciTech, 2014. 15(6): p. 1574-87). Representative micrographs for each particle sample at 3000× magnification was analyzed by measuring the diameter of at least 100 particles per sample.

[3] = tested on: MCT rats; test: PH development in MCT rats; type: in vivo

Compound | Water content [1] | Particle size, Range ([2]; n = 100) | Particle size, Mean ([2]; n = 100, Mean ± SD) [μm] | PH development [3]
OC[C@@H](O)[C@@H](O)[C@H](O)[C@H](O)CO [Raw Man, D-mannitol] | 0.3 ± 0.13 % (w/w) | – | – | –
C[N+](C)(C)C[C@H](O)CC(=O)[O-] [Raw L-Car, L-Carnitine] | 2.68 ± 0.8 % (w/w) | 298.38-1810.57 μm | 659.05 ± 235.82 | attenuates PH development
